{"source": "patent US8378117B2", "about": "(priority 2005, dated 2013)", "key": {"CB2 receptor [1]": {"target": "T1, CB2 receptor (Homo sapiens, UniProt P34972)", "T1 construct": "expressed in transfected cells", "T1 sequence (P34972 whole entry)": "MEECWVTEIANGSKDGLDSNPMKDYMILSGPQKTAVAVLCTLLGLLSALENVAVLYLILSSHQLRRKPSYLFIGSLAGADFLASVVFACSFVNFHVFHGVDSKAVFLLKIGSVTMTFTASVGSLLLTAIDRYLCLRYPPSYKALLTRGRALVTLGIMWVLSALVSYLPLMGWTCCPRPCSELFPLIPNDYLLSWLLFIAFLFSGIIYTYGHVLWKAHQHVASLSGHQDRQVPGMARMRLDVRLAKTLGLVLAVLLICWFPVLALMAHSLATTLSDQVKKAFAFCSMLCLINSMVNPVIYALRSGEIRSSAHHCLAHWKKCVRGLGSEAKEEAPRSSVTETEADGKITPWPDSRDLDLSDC", "assay": "Modified binding assay, CB2 receptor in CHO cells, [3H]WIN 55212", "conditions": "[3H]WIN 55212 0.8 nM, 120 minutes at 37° C.", "experimental": "(§1) Additional receptor binding studies were performed with minor modifications as detailed below.\n(§2) The human CB1 and CB2 receptors were stably expressed in CHO cells as described in Rinaldi-Carmona, M., Calandra, B., Shire, D., Bouaboula, M., Oustric, D., Barth, F., Casellas, P., Ferrara, P. and Le Fur, G. (1996) J. PharmacoL Exp. Ther., 278: 871-878 and Munro, S., Thomas, K. L. and Abu-Shaar, M. (1993) Nature, 365: 61-65, respectively. [^3H]CP 55940 (0.5 nM) was used as the radioligand for the CB1 receptor binding assay. [^3H]WIN 55212 (0.8 nM) was used as the radioligand for the CB2 receptor binding assay. Incubation was carried out for 120 minutes at 37° C.\n(§3) The specific ligand binding to the receptors is defined as the difference between the total binding and the nonspecific binding determined in the presence of an excess of unlabelled ligand. The results are expressed as a percent of control specific binding ((measured specific binding/control specific binding)×100) obtained in the presence of the test compounds.\n(§4) The IC50 values (concentration causing a half-maximal inhibition of control specific binding) were determined by non-linear regression analysis of the competition curves generated with mean replicate values using Hill equation curve fitting (where Y=specific binding, D=minimum specific binding, A=maximum specific binding, C=compound concentration, C50=IC50 and nH=slope factor): (Y=D+[(A−D)/(1+(C/C50)^nH)] CB1 and CB2 Receptor Binding Results\n(§5) For compounds tested, an IC50 binding value was obtained from percent inhibition studies in which various test concentrations were used."}, "CB1 receptor [2]": {"target": "T2, CB1 receptor (Homo sapiens, UniProt P21554)", "T2 construct": "expressed in transfected cells", "T2 sequence (P21554 whole entry)": "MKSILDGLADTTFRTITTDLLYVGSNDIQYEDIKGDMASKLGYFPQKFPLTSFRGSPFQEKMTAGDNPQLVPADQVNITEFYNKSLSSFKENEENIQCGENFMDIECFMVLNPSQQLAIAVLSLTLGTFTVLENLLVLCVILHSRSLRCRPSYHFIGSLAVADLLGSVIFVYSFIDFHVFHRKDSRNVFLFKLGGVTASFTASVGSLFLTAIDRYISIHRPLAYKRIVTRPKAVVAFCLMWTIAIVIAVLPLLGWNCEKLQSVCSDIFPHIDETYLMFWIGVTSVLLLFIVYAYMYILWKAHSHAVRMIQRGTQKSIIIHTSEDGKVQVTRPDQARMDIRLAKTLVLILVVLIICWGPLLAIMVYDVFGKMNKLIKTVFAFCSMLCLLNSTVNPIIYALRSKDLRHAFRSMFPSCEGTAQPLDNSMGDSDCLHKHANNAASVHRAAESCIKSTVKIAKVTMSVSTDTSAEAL", "assay": "Binding assay for CB1 agonists or inverse agonists (SK-N-MC membranes, [3H]-CP-55,940)", "conditions": "read-out: CB1 receptor binding percent inhibition, test concentration 0.2 μM (footnote 2)", "how_it_was_run": "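Membranes from SK-N-MC cells stably expressing human CB1 incubated with compound and [3H]-CP-55,940 ([…]) for 90 min at 30° C in Tris-HCl pH 7.5, MgCl2, EDTA, fatty-acid-free BSA. Non-specific binding defined with 10 uM WIN 55,212; filtration, scintillation count; IC50 by linear regression.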"}, "CB1 receptor [3]": {"target": "T2, CB1 receptor", "assay": "Modified binding assay, CB1 receptor in CHO cells, [3H]CP 55940", "conditions": "[3H]CP 55940 0.5 nM, 120 minutes at 37° C.", "experimental": "as §1, §2, §3, §4, §5"}, "CB1 receptor [4]": {"target": "T2, CB1 receptor", "assay": "Modified functional cell-based assay (Beta-Glo luminescence), CB1 receptor", "conditions": "CB1 EC50 (Receptor Functional Activity), one sample per compound, Cpd 237 n=3", "experimental": "(§6) Additional functional activity studies were performed with minor modifications. Beta galactosidase activity was quantified using the luminescent Beta-Glo Assay System (Promega Corp. Madison, Wis.) and an Orion Microplate Luminometer (Berthold Detection Systems, Oak Ridge, Tenn.). The EC50 values were calculated using GraphPad Prism and a four parameter logistic equation.\n(§7) The functional activity EC50 value for compounds tested (shown in Table 8) were obtained from studies in which varying compound concentrations were used. With the exception of Cpd 237 (n=3), one sample for each compound was tested."}, "CB2 receptor [5]": {"target": "T1, CB2 receptor", "assay": "Modified functional cell-based assay (Beta-Glo luminescence), CB2 receptor", "conditions": "CB2 EC50 (Receptor Functional Activity), one sample per compound, Cpd 237 n=3", "experimental": "as §6, §7"}, "CB2 receptor [6]": {"target": "T1, CB2 receptor", "assay": "Binding assay for CB2 agonists or inverse agonists (SK-N-MC membranes, [3H]-CP-55,940)", "conditions": "read-out: CB2 receptor binding percent inhibition, test concentration 0.2 μM (footnote 2)", "how_it_was_run": "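Membranes from SK-N-MC cells stably expressing human CB2 were incubated with radioligand and test compounds for 90 min at 30 °C in Tris-HCl buffer, pH 7.5, with MgCl2, EDTA and fatty-acid-free BSA. Filter-bound radioactivity was counted; IC50 was derived by linear regression of percent inhibition.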"}}, "data": [{"smiles": "O=C(N[C@H](CO)c1ccccc1)c1n[nH]c2c1CCCCC2Cc1cccc(Cl)c1", "note": "(stereo partly drawn) [Cpd 164, 8-(3-chloro-benzyl)-1,4,5,6,7,8-hexahydro-cycloheptapyrazole-3-carboxylic acid [(1S)-2-hydroxy-1-phenyl-ethyl]-amide]", "values": [{"measurement": "IC50", "setting": "CB2 receptor [1]", "result": 230, "unit": "nM"}, {"measurement": "inhibition at 0.2 µM", "setting": "CB1 receptor [2]", "result": 26, "unit": "%"}, {"measurement": "IC50", "setting": "CB1 receptor [3]", "result": 870, "unit": "nM"}, {"measurement": "EC50", "setting": "CB1 receptor [4]", "result": "> 1000", "unit": "nM"}, {"measurement": "EC50", "setting": "CB2 receptor [5]", "result": 25, "unit": "nM"}, {"measurement": "inhibition at 0.2 µM", "setting": "CB2 receptor [6]", "result": 94, "unit": "%"}]}]}
